Results from patent US20080064681A1, “Therapeutic agent for treating glaucoma” (priority 2006, published 2008).
Where a name gives a salt, the structure may show the parent alone.

Legend:
[1] = target: T1, recombinant ROCK II (1-602) (Homo sapiens, UniProt O75116); experiment: Rho-kinase assay (phosphate incorporation, [γ-32P]ATP, RSK peptide); type: biochemical; conditions: 10 nM ROCK II, 10 μM ATP, 30° C., 10 minutes
T1 construct: made in house; host or cells: Sf9 insect cells
Method: Rho-kinase assays were performed using the compounds in various concentrations and the 50% inhibitory concentrations (hereinafter referred to as the “IC50 value”) of the compounds for Rho-kinase were calculated. In the Rho-kinase assay, phosphorylation reaction was performed using an activated form of recombinant ROCK II (1-602) obtained by expressing human ROCK II cDNA in Sf9 cells […], and the phosphate incorporation activity was defined as the Rho-kinase activity. Namely, the compounds were each added to a reaction solution containing 50 mM Tris-HCL (ph 7.4), […], 2 mM EDTA, 2 mM EGTA, 0.1% tween 20, 50 μM RSK peptide, 10 μM [γ-^32P]ATP, and 10 nM ROCK II, and the reaction was allowed to proceed at 30° C. for 10 minutes. The reaction mixture was spotted on phosphocellulose paper, and the reaction was stopped by dipping the phosphocellulose paper into a phosphoric acid solution. The phosphocellulose paper was washed with the phosphoric acid solution, and then radioactivity was measured with a liquid scintillation counter.
An Rho-kinase assay was performed, and the 50% inhibitory concentration (hereinafter referred to as the “IC50 value”) was calculated. The IC50 value of the reference compound (S)-hexahydro-1-(4-fluoroisoquinoline-5-sulfonyl)-4-glycyl-2-methyl-1H-1,4-diazepine dihydrochloride for Rho-kinase is shown in Table 2.

[2] = test system: intraocular pressure in rabbits; experiment: Intraocular pressure measurement after instillation of eye drops in rabbits; type: in vivo, rabbit (NZW, male); conditions: for time after instillation of maximum intraocular-pressure-reducing effect: 1% eye drops in phosphate buffer pH 7.0, 0.05 ml into right eye; for time after instillation of maximum intraocular-pressure-reducing effect / period of intraocular-pressure-reducing effect longer than that for the compound M / inhibition in vivo at 1 % / intraocular-pressure-reducing effect relative to that of the compound M: rabbit; for period of intraocular-pressure-reducing effect longer than that for the compound M / inhibition in vivo at 1 %: 1% eye drops; for inhibition in vivo at 1 %: Oryctolagus cuniculus, topical, 2 h, 120 minutes after instillation, read-out: maximum intraocular-pressure-reducing effect, intraocular pressure lower than that of the control eye; for intraocular-pressure-reducing effect relative to that of the compound M: after 120 minutes from the instillation
Method: Eye drops were prepared by dissolving each compound (1.0 g) in a phosphate buffer solution which was prepared by dissolving 0.8 g of sodium dihydrogen phosphate and 0.5 g of sodium chloride in purified water such that the final weight was 100 g. The pH was adjusted to 7.0 with sodium hydroxide.
As a control, a phosphate buffer solution (pH 7.0) in which 1.0 g of the compound M was not dissolved was used.
Each rabbit (NZW, male, 2.5 to 3.0 kg) was secured in a holder. One of the preparations (0.05 ml) was instilled into the right eye, and the phosphate buffer as control (0.05 ml) was instilled into the left eye. The intraocular pressures were measured serially using a TonoLab handheld mobile tonometer manufactured by Tiolat. The ratios to the control values were calculated and plotted with time (refer to figures).
Eye drops were prepared by dissolving the compound (S)-hexahydro-1-(4-fluoroisoquinoline-5-sulfonyl)-4-glycyl-2-methyl-1H-1,4-diazepine dihydrochloride (1.0 g) in 1.0 g of dimethyl sulfoxide and adding the resulting solution to a boric acid solution prepared by dissolving 2.0 g of boric acid in purified water such that the final weight was 100 g. The pH was adjusted to 7.0 with sodium hydroxide.
The eye drops were administered to a rabbit as in Example 1, and the intraocular pressures were measured.

[3] = test system: intraocular pressure in rabbits; conditions: literature reports; cited from earlier work

T1 sequence (O75116 1-602): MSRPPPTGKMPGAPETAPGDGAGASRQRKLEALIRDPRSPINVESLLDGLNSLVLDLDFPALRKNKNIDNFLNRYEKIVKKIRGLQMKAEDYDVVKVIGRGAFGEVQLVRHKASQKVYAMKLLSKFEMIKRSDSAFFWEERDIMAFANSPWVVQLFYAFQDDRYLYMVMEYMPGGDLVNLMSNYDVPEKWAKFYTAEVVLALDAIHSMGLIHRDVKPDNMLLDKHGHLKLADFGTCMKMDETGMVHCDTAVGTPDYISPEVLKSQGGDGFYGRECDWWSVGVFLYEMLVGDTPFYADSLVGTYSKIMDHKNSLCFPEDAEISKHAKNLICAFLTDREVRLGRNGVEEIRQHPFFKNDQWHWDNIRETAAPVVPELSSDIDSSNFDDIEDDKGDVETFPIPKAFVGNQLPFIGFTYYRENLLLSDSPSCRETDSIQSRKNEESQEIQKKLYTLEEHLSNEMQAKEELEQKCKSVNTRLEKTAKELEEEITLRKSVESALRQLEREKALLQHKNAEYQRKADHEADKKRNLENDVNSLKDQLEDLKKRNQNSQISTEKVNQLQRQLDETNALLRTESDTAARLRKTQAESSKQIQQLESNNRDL

| SMILES | IC50 [1] [µM] | time after instillation of maximum intraocular-pressure-reducing effect [2] [min] | period of intraocular-pressure-reducing effect longer than that for the compound M [2] | inhibition in vivo at 1 % [2] [%] | intraocular-pressure-reducing effect relative to that of the compound M [2] | effect on intraocular pressure in rabbits (reported) [3] | intraocular-pressure-reducing effect ([2]; 1% eye drops in dimethyl sulfoxide / boric acid solution pH 7.0, rabbit) |
| --- | --- | --- | --- | --- | --- | --- | --- |
| C[C@H]1CNCCCCN1S(=O)(=O)c1cccc2cncc(Cl)c12 [Compound C8, (S)-octahydro-1-(4-chloroisoquinoline-5-sulfonyl)-2-methyl-1,4-diazocine dihydrochloride] | 0.0211 | 120 | substantially the same as that for the compound M | 35 | 1.3 times |  |  |
| C[C@@H](N)[C@H]1CC[C@H](C(=O)Nc2ccncc2)CC1 [Compound Y-27632] |  |  |  |  |  | reduce intraocular pressure in rabbits |  |
| C[C@H]1CNCCCN1S(=O)(=O)c1cccc2cncc(Br)c12 [Compound B7, (S)-hexahydro-1-(4-bromoisoquinoline-5-sulfonyl)-2-methyl-1H-1,4-diazepine dihydrochloride] | 0.0284 | 120 | about 5 hours | 56 | 2.0 times |  |  |
| C[C@H]1CNCCN1S(=O)(=O)c1cccc2cncc(Br)c12 [Compound B6, 2-(S)-1-(4-bromoisoquinoline-5-sulfonyl)-2-methylpiperazine dihydrochloride] | 0.634 | 120 | about 2 hours | 26 | substantially the same as that of the compound M |  |  |
| C[C@H]1CNCCCCN1S(=O)(=O)c1cccc2cncc(Br)c12 [Compound B8, (S)-octahydro-1-(4-bromoisoquinoline-5-sulfonyl)-2-methyl-1,4-diazocine dihydrochloride] | 0.0485 | 120 | about 1 hours | 47 | 1.7 times |  |  |
| O=S(=O)(c1cccc2cnccc12)N1CCCNCC1 [HA-1077] |  |  |  |  |  | reduce intraocular pressure in rabbits |  |
| C[C@H]1CNCCCN1S(=O)(=O)c1cccc2cncc(Cl)c12 [Compound C7, (S)-hexahydro-1-(4-chloroisoquinoline-5-sulfonyl)-2-methyl-1H-1,4-diazepine dihydrochloride] | 0.0258 | 120 | about 3 hours | 54 | 1.9 times |  |  |

Second part, led by results:

| IC50 [1] [µM] | SMILES | time after instillation of maximum intraocular-pressure-reducing effect [2] [min] | period of intraocular-pressure-reducing effect longer than that for the compound M [2] | inhibition in vivo at 1 % [2] [%] | intraocular-pressure-reducing effect relative to that of the compound M [2] | effect on intraocular pressure in rabbits (reported) [3] | intraocular-pressure-reducing effect ([2]; 1% eye drops in dimethyl sulfoxide / boric acid solution pH 7.0, rabbit) |
| --- | --- | --- | --- | --- | --- | --- | --- |
| 0.085 | C[C@H]1CNCCCN1S(=O)(=O)c1cccc2cncc(F)c12 [Compound F7, (S)-hexahydro-1-(4-fluoroisoquinoline-5-sulfonyl)-2-methyl-1H-1,4-diazepine dihydrochloride] | 120 | about 3 hours | 45 | 1.9 times |  |  |
| 0.054 | C[C@H]1CN(C(=O)CN)CCCN1S(=O)(=O)c1cccc2cncc(F)c12.Cl.Cl [Reference Compound, (S)-hexahydro-1-(4-fluoroisoquinoline-5-sulfonyl)-4-glycyl-2-methyl-1H-1,4-diazepine dihydrochloride, reference compound] |  |  |  |  |  | a statistically significant intraocular-pressure-reducing effect was not observed |
| 0.0391 | C[C@H]1CNCCCCN1S(=O)(=O)c1cccc2cncc(F)c12 [Compound F8, (S)-octahydro-1-(4-fluoroisoquinoline-5-sulfonyl)-2-methyl-1,4-diazocine dihydrochloride] | 120 | about 1 hours | 45 | 1.6 times |  |  |
| 0.0195 | C#Cc1cncc2cccc(S(=O)(=O)N3CCCNC[C@@H]3C)c12.Cl.Cl [M, (S)-hexahydro-1-(4-ethynylisoquinoline-5-sulfonyl)-2-methyl-1 H-1,4-diazepine dihydrochloride, reference compound] | 120 |  | 28 |  |  |  |
